Experimental data from US20260207563A1, “UREA COMPOUNDS AS ACTIVATORS OF POTASSIUM CHANNELS KV7.2/7.3 USEFUL IN THE TREATMENT OF CNS AND PNS DISORDERS” (ANGELINI PHARMA S.P.A., priority 2022, published 2026).

What was measured:
Assay type in all cases: cell-based
[1] = molecular target: T1, heteromeric KV7.2/KV7.3 channels (KCNQ2, KCNQ3) (Homo sapiens, UniProt O43525+O43526); assay: Automated patch-clamp (Sophion Qube 384) potency assay against KV7.2/KV7.3 channels; settings: CHO-K1/Kv7.2/Kv7.3 cells; for EC50: EC50 from concentration-response of shift in Vhalf, 10 concentrations up to 30 μM, read-out: Kv7.2/7.3 EC50; for Kv7.2/7.3 ΔV1/2: maximal shift in the Vhalf from the top of the curve
T1 construct: expressed in transfected cells; host or cells: CHO-K1
Outline: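 Whole-cell automated patch clamp on CHO-K1 cells stably expressing human KV7.2/KV7.3, held at −80 mV; I-V steps −100 to +20 mV (1 s) with 0 mV tail pulses, Boltzmann-fitted activation curves. Ten concentrations (1:3 from 30 μM, quadruplicate) versus 0.3% DMSO control; EC50 and maximal shift from 4-parameter fits of Vhalf shift.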

[2] = molecular target: T2, homomeric KV7.4 channel (KCNQ4) (Homo sapiens, UniProt P56696); assay: Automated patch-clamp (Qube) counter-screening assay against KV7.4 channel; settings: CHO-K1 cells expressing KV7.4; class by maximal shift in the Vhalf at 30 μM
T2 construct: host or cells: CHO-K1
Outline: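 CHO-K1 cells stably expressing homomeric human KV7.4 were recorded on the Qube automated patch clamp. Ten concentrations (1:3 dilutions from 30 μM) were tested in quadruplicate. The mean Vhalf shift was fitted with a 4-parameter logistic to give EC50 and maximal Vhalf shift, and selectivity was based on the shift at 30 μM.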

[3] = molecular target: T3, heteromeric KV7.3/KV7.5 channel (KCNQ3, KCNQ5) (Homo sapiens, UniProt O43525+Q9NR82); assay: Automated patch-clamp counter-screening against KV7.3/KV7.5 channel; settings: HEK293 cells expressing Kv7.3/KV7.5; class by maximal shift in the Vhalf at 30 μM
T3 construct: host or cells: HEK293
Outline: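 HEK293 cells with constitutive Kv7.3 and tetracycline-inducible Kv7.5 were recorded by automated patch clamp. Ten concentrations (1:3 series from 30 μM, quadruplicate) were tested; Vhalf shifts were fitted with a 4-parameter logistic to give EC50 and maximal Vhalf shift, with selectivity based on the shift at 30 μM.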

## O=C(NCc1ccnc(OCC(F)(F)F)c1)NCC1CCC(F)(F)C1 (stereo not drawn) [Compound 88, 1-((3,3-Difluorocyclopentyl)methyl)-3-((2-(2,2,2-trifluoroethoxy)pyridin-4-yl)methyl) urea]
[1]
  EC50: 0.96 µM
  Kv7.2/7.3 ΔV1/2: 30.26 mV
[2]
  Kv7.4 selectivity criteria: A (Selective compounds showed Kv7.4 and/or Kv7.3/7.5 ΔV1/2 equal to or lower than 15 mV (letter A in table 3))
[3]
  Kv7.3/7.5 selectivity criteria: B (Non-selective compounds showed Kv7.4 and/or Kv7.3/7.5 ΔV1/2 higher than 15 mV (letter B in table 3))

## O=C(NCc1ccnc(OCC(F)(F)F)c1)N[C@H]1CCc2ccc(F)cc21 [Compound 89]
[1]
  EC50: 2.18 µM
  Kv7.2/7.3 ΔV1/2: 18.85 mV
[2]
  Kv7.4 selectivity criteria: B (Non-selective compounds showed Kv7.4 and/or Kv7.3/7.5 ΔV1/2 higher than 15 mV (letter B in table 3))
[3]
  Kv7.3/7.5 selectivity criteria: A (Selective compounds showed Kv7.4 and/or Kv7.3/7.5 ΔV1/2 equal to or lower than 15 mV (letter A in table 3))

## O=C(NCCC1(C(F)(F)F)CC1)NCc1ccnc(OCC(F)(F)F)c1F [Compound 90]
[1]
  EC50: 0.237 µM
  Kv7.2/7.3 ΔV1/2: 20.86 mV
[2]
  Kv7.4 selectivity criteria: A (Selective compounds showed Kv7.4 and/or Kv7.3/7.5 ΔV1/2 equal to or lower than 15 mV (letter A in table 3))
[3]
  Kv7.3/7.5 selectivity criteria: A (Selective compounds showed Kv7.4 and/or Kv7.3/7.5 ΔV1/2 equal to or lower than 15 mV (letter A in table 3))

## C[C@@H](Oc1cc(CNC(=O)NCCC2(C(F)(F)F)CC2)ncn1)C(F)(F)F [Compound 91]
[1]
  EC50: 2.29 µM
  Kv7.2/7.3 ΔV1/2: 37.24 mV
[2]
  Kv7.4 selectivity criteria: A (Selective compounds showed Kv7.4 and/or Kv7.3/7.5 ΔV1/2 equal to or lower than 15 mV (letter A in table 3))
[3]
  Kv7.3/7.5 selectivity criteria: B (Non-selective compounds showed Kv7.4 and/or Kv7.3/7.5 ΔV1/2 higher than 15 mV (letter B in table 3))

## O=C(NCc1ccnc(C(F)(F)F)c1)N[C@@H]1CCc2ccc(F)cc21 [Compound 92]
[1]
  EC50: 3.95 µM
  Kv7.2/7.3 ΔV1/2: 16.77 mV
[2]
  Kv7.4 selectivity criteria: A (Selective compounds showed Kv7.4 and/or Kv7.3/7.5 ΔV1/2 equal to or lower than 15 mV (letter A in table 3))
[3]
  Kv7.3/7.5 selectivity criteria: A (Selective compounds showed Kv7.4 and/or Kv7.3/7.5 ΔV1/2 equal to or lower than 15 mV (letter A in table 3))

## C[C@@H](Oc1nccc(CNC(=O)NCCC2(C(F)(F)F)CC2)n1)C(F)(F)F [Compound 93]
[1]
  EC50: 4.46 µM
  Kv7.2/7.3 ΔV1/2: 34.16 mV
[2]
  Kv7.4 selectivity criteria: B (Non-selective compounds showed Kv7.4 and/or Kv7.3/7.5 ΔV1/2 higher than 15 mV (letter B in table 3))
[3]
  Kv7.3/7.5 selectivity criteria: A (Selective compounds showed Kv7.4 and/or Kv7.3/7.5 ΔV1/2 equal to or lower than 15 mV (letter A in table 3))

## O=C(NCc1ccnc(C(F)(F)F)c1)N[C@H]1CCc2ccc(F)cc21 [Compound 94]
[1]
  EC50: 4.17 µM
  Kv7.2/7.3 ΔV1/2: 13.23 mV
[2]
  Kv7.4 selectivity criteria: A (Selective compounds showed Kv7.4 and/or Kv7.3/7.5 ΔV1/2 equal to or lower than 15 mV (letter A in table 3))
[3]
  Kv7.3/7.5 selectivity criteria: A (Selective compounds showed Kv7.4 and/or Kv7.3/7.5 ΔV1/2 equal to or lower than 15 mV (letter A in table 3))

## O=C(NCCC1(C(F)(F)F)CC1)N1CCCC1c1ccnc(OCC(F)(F)F)c1 (stereo not drawn) [Compound 95]
[1]
  EC50: 2.29 µM
  Kv7.2/7.3 ΔV1/2: 21.55 mV
[2]
  Kv7.4 selectivity criteria: A (Selective compounds showed Kv7.4 and/or Kv7.3/7.5 ΔV1/2 equal to or lower than 15 mV (letter A in table 3))
[3]
  Kv7.3/7.5 selectivity criteria: A (Selective compounds showed Kv7.4 and/or Kv7.3/7.5 ΔV1/2 equal to or lower than 15 mV (letter A in table 3))

## C[C@H](Oc1cc(CNC(=O)NCCC2(C(F)(F)F)CC2)ncn1)C(F)(F)F [Compound 96]
[1]
  EC50: 6.61 µM
  Kv7.2/7.3 ΔV1/2: 25.66 mV
[2]
  Kv7.4 selectivity criteria: A (Selective compounds showed Kv7.4 and/or Kv7.3/7.5 ΔV1/2 equal to or lower than 15 mV (letter A in table 3))
[3]
  Kv7.3/7.5 selectivity criteria: A (Selective compounds showed Kv7.4 and/or Kv7.3/7.5 ΔV1/2 equal to or lower than 15 mV (letter A in table 3))

## C[C@H](NC(=O)NCCC1(C(F)(F)F)CC1)c1ccnc(C(F)(F)F)c1 [Compound 97]
[1]
  EC50: 2.3 µM
  Kv7.2/7.3 ΔV1/2: 26.87 mV
[2]
  Kv7.4 selectivity criteria: B (Non-selective compounds showed Kv7.4 and/or Kv7.3/7.5 ΔV1/2 higher than 15 mV (letter B in table 3))
[3]
  Kv7.3/7.5 selectivity criteria: B (Non-selective compounds showed Kv7.4 and/or Kv7.3/7.5 ΔV1/2 higher than 15 mV (letter B in table 3))

## C[C@H](Oc1nccc(CNC(=O)NCCC2(C(F)(F)F)CC2)n1)C(F)(F)F [Compound 98]
[1]
  EC50: 5.14 µM
  Kv7.2/7.3 ΔV1/2: 22.14 mV
[2]
  Kv7.4 selectivity criteria: A (Selective compounds showed Kv7.4 and/or Kv7.3/7.5 ΔV1/2 equal to or lower than 15 mV (letter A in table 3))
[3]
  Kv7.3/7.5 selectivity criteria: A (Selective compounds showed Kv7.4 and/or Kv7.3/7.5 ΔV1/2 equal to or lower than 15 mV (letter A in table 3))

## O=C(N[C@@H](CO)c1ccnc(OCC(F)(F)F)c1)N[C@H]1CCc2ccc(F)cc21 [Compound 99]
[1]
  EC50: 12.8 µM
  Kv7.2/7.3 ΔV1/2: 29.92 mV
[2]
  Kv7.4 selectivity criteria: B (Non-selective compounds showed Kv7.4 and/or Kv7.3/7.5 ΔV1/2 higher than 15 mV (letter B in table 3))
[3]
  Kv7.3/7.5 selectivity criteria: B (Non-selective compounds showed Kv7.4 and/or Kv7.3/7.5 ΔV1/2 higher than 15 mV (letter B in table 3))

## O=C(NCc1ccnc(C(F)(F)F)c1)NCC1CCCCC1 [Compound 100]
[1]
  EC50: 3.94 µM
  Kv7.2/7.3 ΔV1/2: 24.71 mV
[2]
  Kv7.4 selectivity criteria: A (Selective compounds showed Kv7.4 and/or Kv7.3/7.5 ΔV1/2 equal to or lower than 15 mV (letter A in table 3))
[3]
  Kv7.3/7.5 selectivity criteria: B (Non-selective compounds showed Kv7.4 and/or Kv7.3/7.5 ΔV1/2 higher than 15 mV (letter B in table 3))

## O=C(N[C@@H](CO)c1ccnc(OCC(F)(F)F)c1)N[C@@H]1CCc2ccc(F)cc21 [Compound 101]
[1]
  EC50: 2.64 µM
  Kv7.2/7.3 ΔV1/2: 38.71 mV
[2]
  Kv7.4 selectivity criteria: B (Non-selective compounds showed Kv7.4 and/or Kv7.3/7.5 ΔV1/2 higher than 15 mV (letter B in table 3))
[3]
  Kv7.3/7.5 selectivity criteria: B (Non-selective compounds showed Kv7.4 and/or Kv7.3/7.5 ΔV1/2 higher than 15 mV (letter B in table 3))

## O=C(NCc1ccnc(C(F)(F)F)c1)Nc1cc(F)cc(Cl)c1 [Compound 102]
[1]
  EC50: 3.83 µM
  Kv7.2/7.3 ΔV1/2: 35.23 mV
[2]
  Kv7.4 selectivity criteria: B (Non-selective compounds showed Kv7.4 and/or Kv7.3/7.5 ΔV1/2 higher than 15 mV (letter B in table 3))
[3]
  Kv7.3/7.5 selectivity criteria: B (Non-selective compounds showed Kv7.4 and/or Kv7.3/7.5 ΔV1/2 higher than 15 mV (letter B in table 3))

## O=C(NCC1CCCCC1)N[C@@H](CO)c1ccnc(OCC(F)(F)F)c1 [Compound 103]
[1]
  EC50: 1.34 µM
  Kv7.2/7.3 ΔV1/2: 42.63 mV
[2]
  Kv7.4 selectivity criteria: A (Selective compounds showed Kv7.4 and/or Kv7.3/7.5 ΔV1/2 equal to or lower than 15 mV (letter A in table 3))
[3]
  Kv7.3/7.5 selectivity criteria: B (Non-selective compounds showed Kv7.4 and/or Kv7.3/7.5 ΔV1/2 higher than 15 mV (letter B in table 3))

## CC(NC(=O)NCCC1(C(F)(F)F)CC1)c1ccnc(OCC(F)(F)F)n1 (stereo not drawn) [Compound 104]
[1]
  EC50: 3.09 µM
  Kv7.2/7.3 ΔV1/2: 21.96 mV
[2]
  Kv7.4 selectivity criteria: A (Selective compounds showed Kv7.4 and/or Kv7.3/7.5 ΔV1/2 equal to or lower than 15 mV (letter A in table 3))
[3]
  Kv7.3/7.5 selectivity criteria: A (Selective compounds showed Kv7.4 and/or Kv7.3/7.5 ΔV1/2 equal to or lower than 15 mV (letter A in table 3))

## C[C@H](NC(=O)NC[C@H](O)C(C)(C)C)c1ccnc(OCC(F)(F)C(F)(F)F)c1 [Compound 105]
[1]
  EC50: 1.5 µM
  Kv7.2/7.3 ΔV1/2: 35.29 mV
[2]
  Kv7.4 selectivity criteria: B (Non-selective compounds showed Kv7.4 and/or Kv7.3/7.5 ΔV1/2 higher than 15 mV (letter B in table 3))
[3]
  Kv7.3/7.5 selectivity criteria: A (Selective compounds showed Kv7.4 and/or Kv7.3/7.5 ΔV1/2 equal to or lower than 15 mV (letter A in table 3))

## O=C(NCCC1(C(F)(F)F)CC1)N1CCC[C@H]1c1ccnc(OCC(F)(F)F)c1 [Compound 106]
[1]
  EC50: 2.84 µM
  Kv7.2/7.3 ΔV1/2: 28.47 mV
[2]
  Kv7.4 selectivity criteria: A (Selective compounds showed Kv7.4 and/or Kv7.3/7.5 ΔV1/2 equal to or lower than 15 mV (letter A in table 3))
[3]
  Kv7.3/7.5 selectivity criteria: A (Selective compounds showed Kv7.4 and/or Kv7.3/7.5 ΔV1/2 equal to or lower than 15 mV (letter A in table 3))

## O=C(NCc1ccnc(OCC(F)(F)F)n1)NCC1CCCCC1 [Compound 107]
[1]
  EC50: 3.06 µM
  Kv7.2/7.3 ΔV1/2: 20.76 mV
[2]
  Kv7.4 selectivity criteria: A (Selective compounds showed Kv7.4 and/or Kv7.3/7.5 ΔV1/2 equal to or lower than 15 mV (letter A in table 3))
[3]
  Kv7.3/7.5 selectivity criteria: A (Selective compounds showed Kv7.4 and/or Kv7.3/7.5 ΔV1/2 equal to or lower than 15 mV (letter A in table 3))

## O=C(NCC1CCC(F)(F)CC1)N[C@@H](CO)c1ccnc(OCC(F)(F)F)c1 [Compound 108]
[1]
  EC50: 3.18 µM
  Kv7.2/7.3 ΔV1/2: 26.46 mV
[2]
  Kv7.4 selectivity criteria: A (Selective compounds showed Kv7.4 and/or Kv7.3/7.5 ΔV1/2 equal to or lower than 15 mV (letter A in table 3))
[3]
  Kv7.3/7.5 selectivity criteria: A (Selective compounds showed Kv7.4 and/or Kv7.3/7.5 ΔV1/2 equal to or lower than 15 mV (letter A in table 3))
